“Also recorded” adds a separate entry of the source.

In assay [1] the target is T1, LPL (Mus musculus, UniProt P11152).
T1 construct: from tissue; host or cells: living wild-type FVB mice (in vivo; endothelium of BAT, heart and other lipid-consuming tissues)
T1 sequence (P11152 28-474): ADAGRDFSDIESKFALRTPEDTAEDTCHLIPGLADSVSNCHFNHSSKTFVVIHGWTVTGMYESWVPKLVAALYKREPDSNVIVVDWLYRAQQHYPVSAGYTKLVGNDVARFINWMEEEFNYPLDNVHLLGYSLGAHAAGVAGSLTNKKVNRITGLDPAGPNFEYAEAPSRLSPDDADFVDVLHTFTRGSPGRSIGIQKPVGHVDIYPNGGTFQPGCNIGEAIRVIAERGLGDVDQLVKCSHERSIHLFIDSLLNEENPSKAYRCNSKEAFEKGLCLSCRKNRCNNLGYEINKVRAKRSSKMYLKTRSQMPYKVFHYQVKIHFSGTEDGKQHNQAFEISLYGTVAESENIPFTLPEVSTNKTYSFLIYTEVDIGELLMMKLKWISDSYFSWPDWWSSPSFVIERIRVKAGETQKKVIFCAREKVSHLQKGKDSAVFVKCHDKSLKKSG
Put plainly: Oral fat tolerance test in cold mice pre-treated with THL. The following applies: cold FVB mice; i.p. pre-treatment; versus mock-treated cold mice (no increase). Type of assay: in vivo. Here is the method: Turnover studies and organ distribution. For turnover studies, anesthetized mice were tail vein injected with 200 μl radiolabeled TRL. Lipoprotein turnover was determined from 10 μl plasma 0.5, 1, 2, 5 and 15 min after injection. After 15 min, blood was removed by cardiac puncture, the right atrium was opened, and the carcass was perfused through the left ventricle with PBS containing 50 U mL^1 heparin. Then, organs were harvested and weighed. For measurement of radioactivity, organs were solubilized in Solvable (PerkinElmer, Boston, USA, 0.1 mL per 10 mg organ), 200 μL were counted in scintillation fluid and TRL uptake was calculated as c.p.m. per mg organ. Oral fat tolerance tests were performed by gavage of 100 μL olive oil with [9,10-^3H(N)]-triolein (370 KBq per mouse). To measure lipoprotein production triton WR-1339 (Tyloxapol from Sigma; 0.5 mg per g body weight as 10% solution in PBS) was injected into the tail vein. Plasma was collected at indicated time points. For the measurement of hepatic production 1(3)-^3H glycerol (125 KBq per mouse) was injected prior to triton WR-1339. Lipids were extracted from plasma samples and ^3H-glycerol incorporated into triglycerides was measured as described above. […] Intestine-derived radioactivity in plasma was measured as described above. […] Blood was collected at indicated time points and plasma triglyceride levels were determined.

Assay [2] deals with T1, LPL. In words: Organ distribution of 59Fe-SPIO- and 3H-triolein-labeled TRL after pre-injection of THL or heparin. It is filed as in vivo. The following applies: cold FVB mice; for uptake of 3H-triolein into BAT / uptake of 59Fe-SPIO into BAT: pre-injected 1 min before radiolabeled TRL i.v., organs 15 min after injection. The method, then: Turnover studies and organ distribution. For turnover studies, anesthetized mice were tail vein injected with 200 μl radiolabeled TRL. Lipoprotein turnover was determined from 10 μl plasma 0.5, 1, 2, 5 and 15 min after injection. After 15 min, blood was removed by cardiac puncture, the right atrium was opened, and the carcass was perfused through the left ventricle with PBS containing 50 U mL^1 heparin. Then, organs were harvested and weighed. For measurement of radioactivity, organs were solubilized in Solvable (PerkinElmer, Boston, USA, 0.1 mL per 10 mg organ), 200 μL were counted in scintillation fluid and TRL uptake was calculated as c.p.m. per mg organ. Oral fat tolerance tests were performed by gavage of 100 μL olive oil with [9,10-^3H(N)]-triolein (370 KBq per mouse). To measure lipoprotein production triton WR-1339 (Tyloxapol from Sigma; 0.5 mg per g body weight as 10% solution in PBS) was injected into the tail vein. Plasma was collected at indicated time points. For the measurement of hepatic production 1(3)-^3H glycerol (125 KBq per mouse) was injected prior to triton WR-1339. Lipids were extracted from plasma samples and ^3H-glycerol incorporated into triglycerides was measured as described above. For chylomicron production mice received ^3H-triolein in olive oil by gavage as described above directly after triton WR-1339 injection. Intestine-derived radioactivity in plasma was measured as described above. For manipulation of LPL function, THL (Roche, 12.5 mg ml^−1 DMSO) was diluted to 1.25 mg ml^−1 in 10% DMSO in PBS. Mice received 200 μL of either 0.25 mg THL, 50 U heparin (ratiopharm) or 10% DMSO in PBS (mock). After 1 min ^59Fe-SPIO- and ^3H-triolein-labeled TRL were injected and plasma clearance and organ uptake were determined as described above. For postprandial studies mice were i.p. injected with 0.25 mg THL or mock solution prior to gavage of 200 μL olive oil. Blood was collected at indicated time points and plasma triglyceride levels were determined.

For assay [3], the target named is T1, LPL. In words: MRI of SPIO-nanosome uptake after pre-injection of THL, heparin or chylomicrons. Type of assay: in vivo, mice. The conditions noted are these: for uptake of SPIO-nanosomes into BAT, T2*-weighted MRI: cold-exposed FVB mice, pre-injection 1 min before SPIO-nanosomes. Here is the method: Animals and diets. All experimental procedures were performed with approval from the animal care committees responsible for the University Medical Center Hamburg-Eppendorf. Animals were housed at 22° C. with ad libitum access to standard laboratory chow diet. We used male and female age-matched (16-22 weeks) FVB wildtype mice which were fasted 24 h or 4 h prior to the experiment. Fasting (22° C.) and cold exposure (4° C.) was performed in single cages for 24 h unless indicated otherwise.
For manipulation of LPL function, THL (Roche, 12.5 mg ml^−1 DMSO) was diluted to 1.25 mg ml^−1 in 10% DMSO in PBS. Mice received 200 μL of either 0.25 mg THL, 50 U heparin (ratiopharm) or PBS (mock). After 1 min, SPIO-nanosomes were injected, and plasma clearance and organ uptake were determined by dynamic MRI.
In vivo imaging studies. MRI was performed as described before^14. Briefly, all static and dynamic MRI measurements were performed with a clinical 3 Tesla MR scanner (Philips Medical Systems, Netherlands) equipped with a custom-made small animal solenoid coil. The dynamic measurements were based on a gradient-echo sequence (Supplementary table 3). The applied sequence is highly sensitive to susceptibility effects caused by local magnetic field inhomogeneities caused by SPIO-TRL. DICOM data were processed with ImageJ (http://rsbweb.nih.gov/ij/). SPIO-nanosomes were injected via a tail vein catheter.

The test system of the next assay is BAT. Put plainly: Intravital confocal imaging of fluorescent-labeled TRL in BAT. Type of assay: in vivo, mice. Here is the method:
In vivo imaging studies. MRI was performed as described before. Briefly, all static and dynamic MRI measurements were performed with a clinical 3 Tesla MR scanner (Philips Medical Systems, Netherlands) equipped with a custom-made small animal solenoid coil. The dynamic measurements were based on a gradient-echo sequence (Supplementary table 3). The applied sequence is highly sensitive to susceptibility effects caused by local magnetic field inhomogeneities caused by SPIO-TRL. DICOM data were processed with Image (http://rsbweb.nih.gov/ij/). For cryo electron microscopy, SPIO-TRL were intravenously injected into control or cold wild-type FVB mice. After 30 min mice were sacrificed, BAT biopsies were taken and processed for transmission electron microscopy (TEM) as described. Micrographs were obtained with a FBI Eagle 4k CCD camera and a Technal 20 TEM operated at 200 kV. For environmental scanning electron microscopy studies of BAT anaesthetized mice were perfused with PBS-Heparin as above and organs were fixed with 2.5% glutaraldehyde in PBS, washed, and postfixed for 30 min with 1% […] in PBS. For intravital microscopy interscapular BAT was dissected in anaesthetized mice and visualized by a confocal microscope equipped with a resonant scanner (Nikon AIR). QD-labeled TRL and fluorescent probes were injected via a tail vein catheter and 15 or 30 confocal images per second were recorded. The acquired data sets were aligned to reduce object movements due to mouse breathing and denoised with a Savitzky-Golay filter in Nikon NIS Elements AR 3.10. Labeling, animations and quicktime-export were done with Adobe After Effects CS4.

Regarding `CCCCCCCCCCC[C@@H](C[C@@H]1OC(=O)[C@H]1CCCCCC)OC(=O)[C@H](CC(C)C)NC=O` [THL, Tetrahydrolipstatin], the “plasma triglycerides after lipid gavage” value on LPL [1] was “significant postprandial triglyceride response”. Besides, at LPL [2], the “uptake of 3H-triolein into BAT” value is “abolished” and the “uptake of 59Fe-SPIO into BAT” value is on record as “abolished”. Also, the “uptake of TRL into the heart” value at LPL [2] (pre-injected before radiolabeled TRL) is given as “inhibited”. Further, the “uptake of SPIO-nanosomes into the heart (myocard), T2*-weighted MRI” value on LPL [3] (24 h fasted FVB mice, inhibitor injected 1 min before SPIO-nanosomes) is reported as “not enhanced; also recorded: abolished”. For the same compound, the “uptake of SPIO-nanosomes into BAT, T2*-weighted MRI” value at LPL [3] was “not enhanced; also recorded: abolished”.
Turning to heparin, the “fluorescent-labeled TRL initially bound to the vascular wall” value in the assay on BAT (heparin after initial TRL binding) was “released”. In addition, in the assay on BAT (time-delayed heparin injection), the “already internalized TRL particles” value was “no influence” and the “binding of a second bolus of TRL” value is listed as “blocked”. Moreover, at LPL [2], the “uptake of 3H-triolein into BAT” value was “blocked” and the “uptake of 59Fe-SPIO into BAT” value is listed as “blocked”. Further, on LPL [3], the “uptake of SPIO-nanosomes into BAT, T2*-weighted MRI” value is “blocked”.

For the origin of these results see patent publication US20140050668A1, “VISUALIZATION OF LIPID METABOLISM” (UNIVERSITAETSKLINIKUM HAMBURG-EPPENDORF, priority 2011, published 2014).
